pIC50: −log10 of the molar value. Read-outs that look alike come from different tables or passages of the source.
How the values were obtained:
in vivo = assay: in vivo; parameters: species or system mouse; Plasma free: unit not given here; conditions: for Kp / Cmax / MRT / Tmax / AUC(0-t) / AUC(0-inf) / CL/F / half-life: female, CD1, mouse, in vivo; for Cmax / MRT / Tmax / AUC(0-t) / AUC(0-inf) / CL/F / half-life: po, 10 mg/kg/day; for Cmax / MRT / Tmax / AUC(0-t) / AUC(0-inf) / CL/F / half-life / Vd: mouse, 10 mg/kg/day p.o.; for AUC(0-t): read-out: AUC0–24
Description: […]. All mice were fed prior to dosing. After dosing, 200 uL of blood was collected at predetermined time points (pre, 1, 3, 7, 24 h). Blood samples were processed for plasma by centrifugation at approximately 4 °C, 4,500 g for 15 min within […]. Plasma samples were stored in polypropylene tubes, quick frozen over dry ice and kept at −70 ± 10 °C until LC/MS/MS analysis. Plasma concentration versus time data was analyzed by non-compartmental approaches using the Phoenix WinNonlin 6.3 software program. Brain tissue samples were taken at day 1, 4, and 8. Tissue samples were processed by centrifugation at approximately 10 °C, 17,000 g for 30 min within 30 min of collection.

TgPheRS[V262A] = TgPheRS[V262A] (Toxoplasma gondii, UniProt A0A125YPN6, V262A); assay: Enzyme assay, TgPheRS V262A; type: biochemical; conditions: Table S4, V262A; read-out: IC50 (enzyme inhibition)

COc1ccc(NC(=O)N2CCCCN3[C@H](CN(C)C)[C@H](c4ccc(C#Cc5ccccc5)cc4)[C@@H]3C2)cc1 [BRD7929]
free concentration in plasma vs EC50 (in vivo; 10 mg/kg p.o. daily, 8 days, unbound): remained below the EC50 for most of the duration
Plasma free (in vivo; 10 mg/kg p.o. daily, mean, time 1:00:00): 7.292
Brain free (in vivo; 10 mg/kg p.o. daily, mean, time 24:00:00): 24.8595
Kp (in vivo; brain/plasma, Day 1, read-out: Kp (Cb/Cp)): 169
Kp (in vivo; brain/plasma, Day 4, read-out: Kp (Cb/Cp)): 211
Kp (in vivo; brain/plasma, Day 8, read-out: Kp (Cb/Cp)): 577
Cmax (in vivo; Day 1): 153 ng/mL
MRT (in vivo; Day 1): 13.1 h
Tmax (in vivo; Day 1): 18.3 h
AUC(0-t) (in vivo; Day 1): 3190 ng·h/mL
AUC(0-inf) (in vivo; Day 4): 27700 ng·h/mL
CL/F (in vivo; Day 4): 7.1 mL/min/kg
Cmax (in vivo; Day 4): 330 ng/mL
MRT (in vivo; Day 4): 11.7 h
Tmax (in vivo; Day 4): 4.3 h
half-life (in vivo; Day 4): 64.6 h
AUC(0-t) (in vivo; Day 4): 6360 ng·h/mL
AUC(0-inf) (in vivo; Day 8): 20000 ng·h/mL
CL/F (in vivo; Day 8): 10 mL/min/kg
Cmax (in vivo; Day 8): 207 ng/mL
MRT (in vivo; Day 8): 12 h
Tmax (in vivo; Day 8): 5 h
half-life (in vivo; Day 8): 81.3 h
AUC(0-t) (in vivo; Day 8): 4390 ng·h/mL
Kp (in vivo; unbound brain/plasma, Day 1, read-out: Kpu,u (Cb/Cp)): 2.1
Kp (in vivo; unbound brain/plasma, Day 4, read-out: Kpu,u (Cb/Cp)): 2.6
Kp (in vivo; unbound brain/plasma, Day 8, read-out: Kpu,u (Cb/Cp)): 7.2
Kp (in vivo; read-out: Kp u,u, concentration in brain vs. plasma): 2 to 7
Vd (in vivo; Day 4): 32 L/kg
Vd (in vivo; Day 8): 62 L/kg
Plasma free (in vivo; time 3:00:00): 9.26
Plasma free (in vivo; time 7:00:00): 10.41
Plasma free (in vivo; time 24:00:00): 11.33
Plasma free (in vivo; time 72:00:00): 12.09
Plasma free (in vivo; time 73:00:00): 19.13
Plasma free (in vivo; time 75:00:00): 25.02
Plasma free (in vivo; time 79:00:00): 22.5
Brain free (in vivo; time 96:00:00): 44.7005
Plasma free (in vivo; time 96:00:00): 17.52
Plasma free (in vivo; time 168:00:00): 12.4
Plasma free (in vivo; time 169:00:00): 14.08
Plasma free (in vivo; time 171:00:00): 14.92
Plasma free (in vivo; time 175:00:00): 15.38
Brain free (in vivo; time 192:00:00): 77.3745
Plasma free (in vivo; time 192:00:00): 12.86
pIC50 (TgPheRS[V262A]): 6.68

Source: paper PMC8786932, “Bicyclic azetidines target acute and chronic stages of Toxoplasma gondii by inhibiting parasite phenylalanyl t-RNA synthetase” (Nature Communications, 2022)
